Patent EP1902732A1, “PROPHYLACTIC/THERAPEUTIC AGENT FOR HER2-EXPRESSING CANCER” (Takeda Pharmaceutical Company Limited, priority 2005, dated 2006)

Experiments:
[1] = system: phosphorylated acetyl-CoA carboxylase (ACC); experiment: Western blotting of phosphorylated ACC in BT-474 cells; assay type: cell-based, human; details: Example 7, two hours, antimycin 1-0.01 nmol/L, oligomycin 100-1 ng/mL, 2,4-dinitrophenol 300-3 µmol/L
Protocol: Human HER2-expressing human breast cancer cell line BT-474 (purchased from American Tissue Culture Collection (ATCC)) was seeded into a 24-multiwell plate (BT-474: 1.2 x 10^5 cells/well) and cultured overnight in a carbon dioxide gas incubator (5% CO2, 37°C). As an energy metabolism inhibitor having a mechanism that differed from that of rotenone, mitochondrial respiratory chain complex III-inhibiting compound antimycin (Wako Pure Chemical Industries) was added to final concentrations of 1, 0.3, 0.1, 0.03 and 0.01 nmol/L while continuing culture. Using another plate, mitochondrial respiratory chain complex V-inhibiting compound oligomycin (Wako Pure Chemical Industries) was added to final concentrations of 100, 30, 10, 3 and 1 ng/mL while continuing culture. In addition, 2,4-dinitrophenol was added to 300, 100, 30, 10 and 3 µmol/L while continuing culture. Two hours after the addition of the agent, the broth was removed and the cells were lysed with an SDS sample buffer (200 µL). Then, this cell lysate was used to perform western blotting analysis. Specifically, this cell lysate (8 µL) was separated by an SDS-PAGE method (gel concentration: 7.5-15%) (Analytical Biochemistry, No. 166, pp. 368-379, 1987) and transferred onto a nitrocellulose membrane (BioRad). Then, an antibody specific to phosphorylated HER2 (Cell signaling technology, Code# 2244), pACC antibody specific to phosphorylated acetyl-CoA carboxylase (ACC) (Cell signaling technology, Code# 3661) and anti-phosphorylated S6K antibody specific to phosphorylated S6 kinase (S6K) (Cell signaling technology, Code# 9209) were used to detect the antibody by chemiluminescent detection with an ECL system (Amersham) to quantify an amount of phosphorylated protein with LAS-1000 plus image analysis device (FUJIFILM).

A498 kidney cancer cell = experiment: Viable cell count using Cell Counting Kit-F; assay type: cell-based; details: A498; HER2-nonexpressing cancer; five days of culture
Protocol: (§1) BT-474 breast cancer cell, MDA-MB-453 breast cancer cell, A549 non-small cell lung cancer cell and LNCaP prostate cancer cell were used as human HER2-expressing cells while MDA-MB-231 breast cancer cell and A498 kidney cancer cell (all purchased from ATCC) were used as HER2-nonexpressing cells. Each of the cells used had been seeded into a 96-plate at 500cells/150 µL/well and cultured overnight. Each of the compounds, i.e., antimycin (final concentrations: 1, 0.1, 0.01 and 0.001 µmol/L), 2,4-dinitrophenol (final concentrations: 0.6, 0.2, 0.06 and 0.02 mmol/L), metformin (final concentrations: 25, 5, 1 and 0.2 mmol/L) and AICAR (final concentrations: 25, 5, 1 and 0.2 mmol/L) was diluted with a medium and added for 50 µL/well at a time to the final concentrations mentioned above. Following five days of culture at 37°C in 5% CO2, the cells were counted using Cell Counting Kit-F (Dojindo Laboratories).
(§2) Viable cell count using Cell Counting Kit-F was carried out by the following method according to the attached instruction. The supernatant was removed from the 96-well plate after five days of culture. Cell Counting Kit-F diluted 1000-fold with an RPMI medium (phenol red-free, serum-free) was added for 100 µL/well at a time. After 30 minutes of reaction at room temperature, fluorescence (excitation wavelength; 480 nm, fluorescent wavelength; 530 nm) was determined with a fluorescent plate reader.
(§3) From the determination results, percentage of the fluorescence level in the wells added with the compound was determined assuming that the fluorescence level in the wells without the addition of the compound (control) is 100%, and the remaining cellular quantity was determined in % with respect to that of the control.
(§4) BT-474 breast cancer cell, MDA-MB-453 breast cancer cell and LNCaP prostate cancer cell were used as human HER2-expressing cells while MDA-MB-231 breast cancer cell and A498 kidney cancer cell (all purchased from ATCC) were used as HER2-nonexpressing cells. Each of the cells used had been seeded into a 96-well plate at 500 cells/150 µL/well and cultured overnight. Troglitazone (final concentrations: 25, 6.25 and 1.56 µmol/L) was diluted with a medium, and added for 50 µL/well at a time to the final concentrations mentioned above. Following five days of culture at 37°C in 5% CO2, the cells were counted using Cell Counting Kit-F (Dojindo Laboratories).
as §3, with “troglitazone” for “the compound”

[2] = system: MDA-MB-231 breast cancer cell; experiment: Viable cell count using Cell Counting Kit-F; assay type: cell-based; details: MB231; HER2-nonexpressing cancer; five days of culture
Protocol: as §1, §2, §3, §4
as §3, with “troglitazone” for “the compound”

[3] = system: A549 non-small cell lung cancer cell; experiment: Viable cell count using Cell Counting Kit-F; assay type: cell-based, human; details: HER2-expressing cancer, five days of culture
Protocol: as §1, §2, §3

| Compound | phosphorylation of ACC [1] | minimum concentrations for inhibiting cell proliferation for 50% or more (A498 kidney cancer cell) | minimum concentrations for inhibiting cell proliferation for 50% or more [2] | minimum concentrations for inhibiting cell proliferation for 50% or more [3] |
| --- | --- | --- | --- | --- |
| O=[N+]([O-])c1ccc(O)c([N+](=O)[O-])c1 [2,4-dinitrophenol] | increased dose-dependently | 0.2 mmol/L | 0.2 mmol/L | <0.02 mmol/L |
| antimycin | increased dose-dependently | >0.0001 mmol/L | 1e-05 mmol/L | 1e-05 mmol/L |
